# Measurements from ChEMBL document CHEMBL1150714, “1,3,7-Trimethylguanine from the Sponge Latrunculia brevis” (J Nat Prod, 1987).
# Tested on: P388
# Experiment: Cytotoxicity against mouse P388 cells
# Format: functional, cell-based
smiles,measurement,value
Cn1c(=O)c2c(ncn2C)n(C)c1=N,EC50,> 10 µg/mL
